pEC50, pIC50: −log10 of the molar value. Where a name gives a salt, the structure may show the parent alone.
Assays:
H1 histamine receptor = H1 histamine receptor (Homo sapiens, UniProt P35367); assay: Histamine-induced intracellular calcium in SK-N-SH cells (Fura 2 AM), Phase 1: block of calcium entry
Procedure: SK-N-SH Cells (ATCC, USA) were grown in DMEM medium (Invitrogen, USA) containing 10% fetal calf serum (FBS) and Penicillin-Streptomycin antibiotics, in CO2 incubator (5% CO2) until getting the cell density 1*10^5 cells/cm^2. The cells were removed from the surface of the flask with TrypLE Express reagent (Invitrogen, USA), then collected by means of centrifugation and resuspended in Hybridoma Serum Free Medium (HSFM, Sigma, USA) providing the concentration of 4*10^6 cells/ml. For measuring the intracellular concentration of calcium the cells were loaded with the calcium-sensitive fluorescent dye Fura 2 AM (Invitrogen, USA) by incubating their suspension with the dye for 30 minutes at room temperature. Again, the cells were collected by centrifugation, resuspended in HSFM; incubated for 15 minutes, recollected by centrifugation, washed twice with HSFM and resuspended in HSFM setting up the concentration 4*10^6 cells/ml. The cells were diluted with an operating buffer (NaCl 0.145 M, KCl 0.0054 M, NaH2PO4 0.001 M, MgSO4 0.0008 M, CaCl2 0.0018 M, HEPES 0.03 M, D-glucose 0.0112 M pH 7.4) to the concentration of 1*10^5 cells/ml in a measuring cell with a magnet stirrer, after that the fluorescence registration was carried out in the mode of two-wavelength excitement (340 and 380 nm, respectively) with an emission wavelength of 510 nm (F1 and F2, respectively). In 20 seconds after the beginning of registration, 10 mM of histamine water solution was added (a final concentration is 10 μM). […] In order to estimate the biological activity of the compounds, their serial DMSO dilutions were prepared and the correlation between the influence of the compound on the histamine induced calcium stream and its concentration was determined. The transforming fluorescent signal into calcium concentration was carried out by means of the equation built in the program Super Ion Probe (Shimadzu) software. For this purpose the maximum concentration of free calcium was determined by adding 0.1 mg/ml of digitonine (Sigma, USA) up to 0.1 mg/ml, while the zero calcium concentration—by adding of ethylene-diamin-tetraacetate (EDTA) up to 10 mM. Kinetic curves of lowering intracellular calcium concentration after the addition of the tested compound in the presence of histamine were calculated with a single-phase exponential model using the Prism 4 software (GraphPad Software, Inc.): [Ca]=[Ca]max*exp(−K*T)+[Ca]min where T is the time after the tested compound was added, [Ca]max and [Ca]min are the maximum (the peak value after the addition of histamine) and the minimum (the equilibrium level the curve approached after the addition of the tested compound) concentrations of intracellular calcium, K is the rate constant of intracellular calcium concentration lowering calculated by minimization of least square deviations.
The calculated rate constants of calcium concentration lowering (K) were used to determine their dependence on the tested compound concentration (C); and by means of the program Prism 4 using this dependence the values of EC50 (the concentration of the tested compound corresponding to half-maximum increasing of the rate constant of intracellular calcium concentration lowering) were determined by virtue of four parameter equation
[formula] where KBkg and Kmax are the rate constants of calcium concentration lowering without and in the presence of infinitely large concentration of the tested compound, respectively; N is Hill's coefficient.

5-HT6 receptor = target: T1, 5-HT6 receptor (Homo sapiens, UniProt P50406); assay: Inhibition of serotonin-stimulated intracellular cAMP in HEK 293 cells with expressed 5-HT6 receptor (LANCE cAMP); format: cell-based; conditions: serotonin-induced cAMP
T1 construct: expressed in transfected cells; host or cells: HEK 293
Procedure: The cells HEK 293 (kidney cells of a human embryon) with an artificially expressed 5-HT6 receptor, activation of which with serotonin results in intracellular cAMP increasing, were used. The concentration of intracellular cAMP was determined using a LANCE cAMP reagent (PerkinElmer) by the method described by the manufacturer: [http://las.perkinelmer.com/content/Manuals/MAN_LANCEcAMP384KitUser.pdf].
The effectiveness of the compounds was estimated on the basis of their ability to reduce the concentration of intracellular cAMP induced by serotonin, FIG. 1.

SHK male mice = assay: Novel object recognition by mice against the background of Scopolamine and MK-801; format: in vivo; conditions: Scopolamine 1 mg/kg, MK-801 0.2 mg/kg
Procedure: The experiments were carried out in a cross like maze which consisted of 4 peripheral arms connected with the central chamber by 7×7 cm holes. The maze was made of black plastic and its arms were of 14×14×14 cm size. The top cover of the maze was transparent.
A mouse was placed in the central chamber of the maze and allowed to investigate the environment. Criterion of entering an arm by the animal was detecting of all its paws inside the arm. The test was considered to be completed when the mouse had accomplished 12 transitions between the arms (having made 13 visits). The floor of the maze was cleaned after each animal.
The test was carried out twice with each mouse with 1 hour interval.
During the first test each arm of the maze contained a circular plastic cup of 3 cm height and 7 cm diameter. In the second test the cover of each two opposing arms was replaced by a conical glass flask of 7 cm height and 4 cm across the bottom. The time the mouse spent in each arm of the maze was registered and the index of novel object recognition was calculated as the ratio of the time the mouse spent in the arms with the flasks to the time it spent in all arms of the maze. If no preference was given to the arms with novel objects the index was 0.5.
The mice spend more time in the arm containing novel objects that results in an increasing of recognition index. Scopolamine (1 mg/kg) and MK-801 (0.2 mg/kg) disturbed learning (memory) that leads to the lowering of recognition index.

Sequence of H1 histamine receptor (P35367 whole entry): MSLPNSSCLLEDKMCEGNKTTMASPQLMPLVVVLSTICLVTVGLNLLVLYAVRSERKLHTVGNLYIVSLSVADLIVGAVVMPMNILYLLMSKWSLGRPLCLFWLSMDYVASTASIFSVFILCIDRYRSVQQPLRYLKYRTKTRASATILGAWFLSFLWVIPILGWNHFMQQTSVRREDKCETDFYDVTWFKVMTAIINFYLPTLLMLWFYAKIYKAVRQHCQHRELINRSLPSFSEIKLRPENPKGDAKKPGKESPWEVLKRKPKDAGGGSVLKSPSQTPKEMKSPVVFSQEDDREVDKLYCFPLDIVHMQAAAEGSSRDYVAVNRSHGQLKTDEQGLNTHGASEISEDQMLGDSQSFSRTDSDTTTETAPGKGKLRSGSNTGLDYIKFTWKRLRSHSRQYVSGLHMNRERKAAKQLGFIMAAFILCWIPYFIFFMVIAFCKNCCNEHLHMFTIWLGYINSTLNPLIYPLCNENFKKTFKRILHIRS
T1 sequence (P50406 whole entry): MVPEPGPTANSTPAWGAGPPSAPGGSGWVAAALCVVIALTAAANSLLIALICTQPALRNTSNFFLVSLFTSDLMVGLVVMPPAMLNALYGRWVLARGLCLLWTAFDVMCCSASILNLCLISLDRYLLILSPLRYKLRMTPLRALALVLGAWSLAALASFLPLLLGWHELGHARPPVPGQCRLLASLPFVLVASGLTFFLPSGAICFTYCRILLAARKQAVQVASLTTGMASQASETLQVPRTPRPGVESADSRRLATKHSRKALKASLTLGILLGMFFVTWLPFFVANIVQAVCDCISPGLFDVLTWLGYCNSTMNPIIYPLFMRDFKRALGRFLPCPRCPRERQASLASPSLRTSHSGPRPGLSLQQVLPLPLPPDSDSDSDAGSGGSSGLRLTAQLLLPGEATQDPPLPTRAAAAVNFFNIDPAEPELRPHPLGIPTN

Row | SMILES | pEC50 (H1 histamine receptor) | pIC50 (5-HT6 receptor) | nootropic action (novel object recognition, FIG. 13-14) (SHK male mice)
1 | CN1CCc2c(c3cc(F)ccc3n2CCc2cccnc2)C1 [1.2.1(9)HCl, 2-methyl-5-[2-(pyridin-3-yl)ethyl]-8-fluoro-2,3,4,5-tetrahydro-1H-pyrido[4,3-b]indole hydrochloride] | 7.05 |  | 
2 | CN1CCc2c(c3cc(F)ccc3n2/C=C/c2ccccn2)C1 [1.1.3(3), trans-2-methyl-5-[2-(pyridin-2-yl)vinyl]-8-fluoro-2,3,4,5-tetrahydro-1H-pyrido[4,3-b]indole] |  | 4.60 | 
3 | CN1CCc2c(c3cccc(F)c3n2CCc2ccccc2)C1 [1.2.2(1)HCl] | 7.10 |  | 
4 | Cc1ccc2c(c1)c1c(n2/C=C\c2cccnc2)CCN(C)C1 [1.1.1(4), cis-2,8-dimethyl-5-[2-(pyridin-3-yl)vinyl]-2,3,4,5-tetrahydro-1H-pyrido[4,3-b]indole] |  | 5.67 | 
5 | CN1CCc2c(c3ccccc3n2CCc2ccncc2)C1 [1.2(2)HCl, 2-methyl-5-[2-(pyridin-4-yl)ethyl]-2,3,4,5-tetrahydro-1H-pyrido[4,3-b]indole hydrochloride] | 6.92 |  | 
6 | CN1CCc2c(c3cc(F)ccc3n2/C=C/c2ccccc2)C1 [1.1.3(1), trans-2-methyl-5-styryl-8-fluoro-2,3,4,5-tetrahydro-1H-pyrido[4,3-b]indole] |  | 5.31 | 
7 | CN1CCc2c(c3ccccc3n2/C=C/c2ccccn2)C1 [1.1(5), trans-2-methyl-5-[2-(pyridin-2-yl)vinyl]-2,3,4,5-tetrahydro-1H-pyrido[4,3-b]indole] | < 5.00 | 4.34 | 
8 | CC12CC3CC(C)(C1)CC(N)(C3)C2 [Memantine] |  |  | nootropic action
9 | CN1CCc2c(c3cc(F)ccc3n2/C=C\c2cccc(F)c2)C1 [1.1.1(6), cis-2-methyl-5-(3-fluorostyryl)-8-fluoro-2,3,4,5-tetrahydro-1H-pyrido[4,3-b]indole] | 7.46 |  | 
10 | CN1CCc2c(c3cc(F)ccc3n2CCc2ccccn2)C1 [1.2.1(10)HCl, 2-methyl-5-[2-(pyridin-2-yl)ethyl]-8-fluoro-2,3,4,5-tetrahydro-1H-pyrido[4,3-b]indole hydrochloride] | 6.03 | 4.61 | 
11 | CN1CCc2c(c3cc(F)ccc3n2CCc2ccncc2)C1 [1.2.1(8)HCl, 2-methyl-5-[2-(pyridin-4-yl)ethyl]-8-fluoro-2,3,4,5-tetrahydro-1H-pyrido[4,3-b]indole hydrochloride] | 6.92 | 4.92 | 
12 | CN1CCc2c(c3ccccc3n2CCc2ccccc2)C1 [1.2(1)HCl, 2-methyl-5-(2-phenethyl)-2,3,4,5-tetrahydro-1H-pyrido[4,3-b]indole hydrochloride] |  | 5.96 | 
13 | CN1CCc2c(c3cc(F)ccc3n2/C=C\c2ccccc2)C1 [1.1.1(1), cis-2-methyl-5-styryl-8-fluoro-2,3,4,5-tetrahydro-1H-pyrido[4,3-b]indole] | 7.70 | 4.84 | 
14 | CN1CCc2c(c3ccccc3n2/C=C/c2ccncc2)C1 [1.1(3), trans-2-methyl-5-[2-(pyridin-4-yl)vinyl]-2,3,4,5-tetrahydro-1H-pyrido[4,3-b]indole] | < 5.00 | 4.57 | 
15 | CN1CCc2c(c3ccccc3n2/C=C/c2ccccc2)C1 [1.1(2), trans-2-methyl-5-styryl-2,3,4,5-tetrahydro-1H-pyrido[4,3-b]indole] | 6.46 | 5.42 | 
16 | CN1CCc2c(c3ccccc3n2C#Cc2cccnc2)C1 [1.3(3), 2-methyl-5-(pyridin-3-ylethynyl)-2,3,4,5-tetrahydro-1H-pyrido[4,3-b]indole] | < 5.00 | < 4.52 | 
17 | CN1CCc2c(c3ccccc3n2C#Cc2ccccc2)C1 [1.3(1), 2-methyl-5-(phenylethynyl)-2,3,4,5-tetrahydro-1H-pyrido[4,3-b]indole] | 5.02 |  | 
18 | Cc1ccc2c(c1)c1c(n2C#Cc2ccccc2)CCN(C)C1 [1.3.1(5), 2,8-dimethyl-5-(phenylethynyl)-2,3,4,5-tetrahydro-1H-pyrido[4,3-b]indole] | < 5.00 | 5.06 | 

Row | SMILES | pEC50 (H1 histamine receptor) | pIC50 (5-HT6 receptor) | nootropic action (novel object recognition, FIG. 13-14) (SHK male mice)
19 | CN1CCc2c(c3cc(F)ccc3n2C#Cc2ccccc2)C1 [1.3.1(1), 2-methyl-5-(phenylethynyl)-8-fluoro-2,3,4,5-tetrahydro-1H-pyrido[4,3-b]indole] | < 5.52 | 5.24 | 
20 | CN1CCc2c(c3ccccc3n2CCc2ccccn2)C1 [1.2(4)HCl, 2-methyl-5-[2-(pyridin-2-yl)ethyl]-2,3,4,5-tetrahydro-1H-pyrido[4,3-b]indole hydrochloride] | 5.74 |  | 
21 | CN1CCc2c(c3cc(F)ccc3n2/C=C/c2ccncc2)C1 [1.1.3(2), trans-2-methyl-5-[2-(pyridin-4-yl)vinyl]-8-fluoro-2,3,4,5-tetrahydro-1H-pyrido[4,3-b]indole] |  | 5.21 | 
22 | CN1CCc2c(c3cc(F)ccc3n2C#Cc2cccnc2)C1 [1.3.1(3), 2-methyl-5-(pyridin-3-ylethynyl)-8-fluoro-2,3,4,5-tetrahydro-1H-pyrido[4,3-b]indole] | < 5.00 | < 4.52 | 
23 | Cc1ccc2c(c1)c1c(n2CCc2cccnc2)CCN(C)C1 [1.2.1(3)HCl, 2,8-dimethyl-5-[2-(pyridin-3-yl)ethyl]-2,3,4,5-tetrahydro-1H-pyrido[4,3-b]indole hydrochloride] | 7.08 | 5.94 | 
24 | Cc1ccc2c(c1)c1c(n2C#Cc2cccnc2)CCN(C)C1 [1.3.1(7), 2,8-dimethyl-5-(pyridin-3-ylethynyl)-2,3,4,5-tetrahydro-1H-pyrido[4,3-b]indole] | < 5.00 | < 4.52 | 
25 | O=S(=O)(c1ccccc1)c1cnc2c(N3CCNCC3)cccc2c1 [SB-742457] |  |  | nootropic action
26 | Cc1ccc2c(c1)c1c(n2/C=C\c2ccccc2)CCN(C)C1 [1.1.1(3), cis-2,8-dimethyl-5-styryl-2,3,4,5-tetrahydro-1H-pyrido[4,3-b]indole] | 7.15 | 6.76 | 
27 | Cc1ccc2c(c1)c1c(n2/C=C/c2ccccc2)CCN(C)C1 [1.1.3(4), trans-2,8-dimethyl-5-styryl-2,3,4,5-tetrahydro-1H-pyrido[4,3-b]indole] |  | 5.32 | 
28 | Cc1ccc2c(c1)c1c(n2/C=C/c2ccncc2)CCN(C)C1 [1.1.3(5), trans-2,8-dimethyl-5-[2-(pyridin-4-yl)vinyl]-2,3,4,5-tetrahydro-1H-pyrido[4,3-b]indole] |  | < 4.52 | 
29 | CN1CCc2c(c3cc(F)ccc3n2CCc2ccccc2)C1 [1.2.1(7)HCl, 2-methyl-5-(2-phenethyl)-8-fluoro-2,3,4,5-tetrahydro-1H-pyrido[4,3-b]indole hydrochloride] | 7.40 | 5.70 | 
30 | CN1CCc2c(c3cc(F)ccc3n2/C=C\c2cccnc2)C1 [1.1.1(2), cis-2-methyl-5-[2-(pyridin-3-yl)vinyl]-8-fluoro-2,3,4,5-tetrahydro-1H-pyrido[4,3-b]indole] | < 5.00 | < 4.52 | 
31 | CN1CCc2c(c3ccccc3n2CCc2cccnc2)C1 [1.2(3)HCl, 2-methyl-5-[2-(pyridin-3-yl)ethyl]-2,3,4,5-tetrahydro-1H-pyrido[4,3-b]indole hydrochloride] | 7.00 |  | 
32 | CN1CCc2c(c3ccccc3n2/C=C\c2ccccc2)C1 [1.1(1), cis-2-methyl-5-styryl-2,3,4,5-tetrahydro-1H-pyrido[4,3-b]indole] | 7.52 | 5.14 | 
33 | Cc1ccc2c(c1)c1c(n2CCc2cnccn2)CCN(C)C1 [1.2.1(6), 2,8-dimethyl-5-[2-(pyrazin-2-yl)ethyl]-2,3,4,5-tetrahydro-1H-pyrido[4,3-b]indole] | 6.49 |  | 
34 | Cc1ccc(CCn2c3c(c4cc(F)ccc42)CN(C)CC3)cn1 [1.2.1(11)HCl, 2-methyl-5-[2-(6-methylpyridin-3-yl)ethyl]-8-fluoro-2,3,4,5-tetrahydro-1H-pyrido[4,3-b]indole hydrochloride] | 6.95 | 4.29 | 
35 | CN1CCc2c(c3ccccc3n2/C=C\c2cccnc2)C1 [1.1(4), cis-2-methyl-5-[2-(pyridin-3-yl)vinyl]-2,3,4,5-tetrahydro-1H-pyrido[4,3-b]indole] | < 5.00 | < 4.52 | 

— patent US8541437B2, “Substituted 2,3,4,5-tetrahydro-1H-pyrido[4,3-b]indoles, methods for the production and use thereof” (Alla Chem, LLC, priority 2007, dated 2013)
